Test [1] deals with T1, TRβ (Homo sapiens, UniProt P10828).
T1 construct: 5 μL of 4×TR beta/alfa-LBD; purchased Invitrogen PV4686
T1 sequence (P10828 217-461 limits assumed): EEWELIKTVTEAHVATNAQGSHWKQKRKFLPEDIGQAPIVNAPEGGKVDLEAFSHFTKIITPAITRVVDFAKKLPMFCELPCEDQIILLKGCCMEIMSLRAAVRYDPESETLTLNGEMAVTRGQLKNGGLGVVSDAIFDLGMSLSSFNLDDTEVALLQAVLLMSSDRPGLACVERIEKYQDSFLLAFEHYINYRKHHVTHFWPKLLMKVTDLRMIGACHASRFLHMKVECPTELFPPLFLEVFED
Kind of test: LanthaScreen TR-FRET Thyroid Receptor beta Coactivator Assay (in vitro binding activity). The conditions noted are these: TR beta-LBD. As to the method: (§1) 2. Detection of the Binding Activity of the Compound of the Present Invention to TRα or TRβ In Vitro
(§2) Test Materials • LanthaScreen TR-FRET Thyroid Receptor beta Coactivator Assay kit was purchased from Invitrogen, Cat. No. PV4686; • LanthaScreen TR-FRET Thyroid Receptor alfa Coactivator Assay kit was purchased from Invitrogen, Cat. No. PV4687.
(§3) The method was experimented with LanthaScreen TR-FRET Thyroid Receptor beta/alfa Coactivator Assay kit. The test compound was dissolved in DMSO and diluted 3 times to a total of 10 concentrations, and then diluted with TR-FRET Coregulator Buffer C in the kit to form a solution containing 2% DMSO, 10 μL of the solution containing 2% DMSO was taken into a 384-well plate, then 5 μL of 4×TR beta/alfa-LBD, 5 μL of a mixture containing 0.4 μM fluorescein-SRC2-2 and 8 nM Tb anti-GST antibody were added into each well, mixed thoroughly, and incubated at room temperature for 1 h in the dark. After 1 h, BMG LABTECH's PHERAstar FSX microplate reader was used to read the fluorescence value (RFU) at […]. The TR-FRET ratio was calculated by dividing the emission signal at 520 nm by the emission signal at 495 nm. Graph Pad Prism 5 software was used to draw the curve and calculate the EC50 value. The in vitro binding activity test results of some of the compounds of the examples of the present invention are shown in Table 1 below.
(Time-resolved FRET reads energy transfer from a long-lived donor to a nearby acceptor.)

Test [2] addresses T2, TRα (Homo sapiens, UniProt P10827).
T2 construct: 5 μL of 4×TR beta/alfa-LBD; purchased Invitrogen PV4687
Kind of test: LanthaScreen TR-FRET Thyroid Receptor alfa Coactivator Assay (in vitro binding activity). Conditions: TR alfa-LBD. As to the method:
as §1, §2, §3

The structures appear in SMILES notation.

In general, EC50 refers to the concentration that produces a half-maximal response. Low readings indicate a more potent agent, high ones a less potent agent.

T2 sequence (P10827 163-410 isoform P10827-2 limits assumed, other chains not shown): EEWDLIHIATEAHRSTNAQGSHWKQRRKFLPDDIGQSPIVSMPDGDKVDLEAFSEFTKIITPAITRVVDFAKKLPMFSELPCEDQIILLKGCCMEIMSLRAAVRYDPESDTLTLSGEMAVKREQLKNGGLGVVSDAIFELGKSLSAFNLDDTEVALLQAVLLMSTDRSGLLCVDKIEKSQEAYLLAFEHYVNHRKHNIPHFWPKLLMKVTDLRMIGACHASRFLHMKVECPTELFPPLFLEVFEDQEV

As to `O=C1c2ccc(Oc3c(Cl)cc(-n4ncc(=O)[nH]c4=O)cc3Cl)cc2CCN1Cc1cccnn1` [Example 25, 2-(3,5-dichloro-4-((1-oxo-2-(pyridazin-3-ylmethyl)-1,2,3,4-tetrahydroisoquinolin-6-yl)oxy)phenyl)-1,2,4-triazine-3,5(2H,4H)-dione], the EC50 was 0.241 µM in test [1] and above 100 µM in test [2].

With `Cc1cc(-n2nc(C#N)c(=O)[nH]c2=O)cc(C)c1Oc1ccc2c(c1)CCNC2=O` [Example 26, 2-(3,5-dimethyl-4-((1-oxo-1,2,3,4-tetrahydroisoquinolin-6-yl)oxy)phenyl)-3,5-dioxo-2,3,4,5-tetrahydro-1,2,4-triazine-6-carbonitrile], the EC50 in test [1] worked out at 0.476 µM; in test [2] it was 7.04 µM.

With `Cc1ccc(N2CCc3cc(Oc4c(Cl)cc(-n5nc(C#N)c(=O)[nH]c5=O)cc4Cl)ccc3C2=O)cc1` [Example 27, 2-(3,5-dichloro-4-((1-oxo-2-(p-tolyl)-1,2,3,4-tetrahydroisoquinolin-6-yl)oxy)phenyl)-3,5-dioxo-2,3,4,5-tetrahydro-1,2,4-triazine-6-carbonitrile], the EC50 in test [1] is 0.14 µM; in test [2] it was above 100 µM.

On to `N#Cc1nn(-c2cc(Cl)c(Oc3ccc4c(c3)CCN(c3ccc(F)cc3)C4=O)c(Cl)c2)c(=O)[nH]c1=O` [Example 28g], for which the figures for the half-maximal effective concentration (EC50) in test [1] and in test [2] were 0.128 µM and above 100 µM, respectively.

`O=C1c2ccc(Oc3c(Cl)cc(-n4ncc(=O)[nH]c4=O)cc3Cl)cc2CCN1Cc1ccc(F)c(F)c1` [Example 30, 2-(3,5-dichloro-4-((2-(3,4-difluorobenzyl)-1-oxo-1,2,3,4-tetrahydroisoquinolin-6-yl)oxy)phenyl)-1,2,4-triazine-3,5(2H,4H)-dione]: the concentration for a half-maximal effect (EC50) was found to be 0.0062 µM in test [1] and 0.093 µM in test [2].

As for `N#Cc1nn(-c2cc(Cl)c(Oc3ccc4c(c3)CCN(Cc3ccc(F)c(F)c3)C4=O)c(Cl)c2)c(=O)[nH]c1=O` [Example 30d, 2-(3,5-dichloro-4-((2-(3,4-difluorobenzyl)-1-oxo-1,2,3,4-tetrahydroisoquinolin-6-yl)oxy)phenyl)-3,5-dioxo-2,3,4,5-tetrahydro-1,2,4-triazine-6-carbonitrile], the concentration for a half-maximal effect (EC50) in test [1] is 0.065 µM; in test [2] it was above 100 µM.

Regarding `O=C1c2ccc(Oc3c(Cl)cc(-n4ncc(=O)[nH]c4=O)cc3Cl)cc2CCN1Cc1cccc(F)c1` [Example 31, 2-(3,5-dichloro-4-((2-(3-fluorobenzyl)-1-oxo-1,2,3,4-tetrahydroisoquinolin-6-yl)oxy)phenyl)-1,2,4-triazine-3,5(2H,4H)-dione], the EC50 was below 0.0046 µM in test [1] and 0.107 µM in test [2].

Turning to `N#Cc1nn(-c2cc(Cl)c(Oc3ccc4c(c3)CCN(Cc3cccc(F)c3)C4=O)c(Cl)c2)c(=O)[nH]c1=O` [Example 31d, 2-(3,5-dichloro-4-((2-(3-fluorobenzyl)-1-oxo-1,2,3,4-tetrahydroisoquinolin-6-yl)oxy)phenyl)-3,5-dioxo-2,3,4,5-tetrahydro-1,2,4-triazine-6-carbonitrile], the concentration for a half-maximal effect (EC50) was 0.034 µM in test [1] and above 100 µM in test [2].

Regarding `O=C1c2ccc(Oc3c(Cl)cc(-n4ncc(=O)[nH]c4=O)cc3Cl)cc2CCN1Cc1cc(F)cc(F)c1` [Example 32, 2-(3,5-dichloro-4-((2-(3,5-difluorobenzyl)-1-oxo-1,2,3,4-tetrahydroisoquinolin-6-yl)oxy)phenyl)-1,2,4-triazine-3,5(2H,4H)-dione], the EC50 came to 0.0046 µM in test [1] and 0.181 µM in test [2].

For `N#Cc1nn(-c2cc(Cl)c(Oc3ccc4c(c3)CCN(Cc3cc(F)cc(F)c3)C4=O)c(Cl)c2)c(=O)[nH]c1=O` [Example 32d, 2-(3,5-Dichloro-4-((2-(3,5-difluorobenzyl)-1-oxo-1,2,3,4-tetrahydroisoquinolin-6-yl)oxy)phenyl)-3,5-dioxo-2,3,4,5-tetrahydro-1,2,4-triazine-6-carbonitrile], the figures for the 50% effective concentration (EC50) in test [1] and in test [2] were 0.054 µM and above 100 µM, respectively.

For the compound `O=C1c2ccc(Oc3c(Cl)cc(-n4ncc(=O)[nH]c4=O)cc3Cl)cc2CCN1Cc1ccccc1F` [Example 33, 2-(3,5-dichloro-4-((2-(2-fluorobenzyl)-1-oxo-1,2,3,4-tetrahydroisoquinolin-6-yl)oxy)phenyl)-1,2,4-triazine-3,5(2H,4H)-dione], the half-maximal effective concentration (EC50) is 0.017 µM in test [1] and 0.156 µM in test [2].

On to `N#Cc1nn(-c2cc(Cl)c(Oc3ccc4c(c3)CCN(Cc3ccccc3F)C4=O)c(Cl)c2)c(=O)[nH]c1=O` [Example 33d, 2-(3,5-Dichloro-4-((2-(2-fluorobenzyl)-1-oxo-1,2,3,4-tetrahydroisoquinolin-6-yl)oxy)phenyl)-3,5-dioxo-2,3,4,5-tetrahydro-1,2,4-triazine-6-carbonitrile], for which the concentration for a half-maximal effect (EC50) was 0.11 µM in test [1] and above 100 µM in test [2].

As for `O=C1c2ccc(Oc3c(Cl)cc(-n4ncc(=O)[nH]c4=O)cc3Cl)cc2CCN1Cc1ccc(F)c(Cl)c1` [Example 35, 2-(3,5-dichloro-4-((2-(3-chloro-4-fluorobenzyl)-1-oxo-1,2,3,4-tetrahydroisoquinolin-6-yl)oxy)phenyl)-1,2,4-triazine-3,5(2H,4H)-dione], the EC50 in test [1] was below 0.0046 µM; in test [2] it was 0.092 µM.

In the case of `N#Cc1nn(-c2cc(Cl)c(Oc3ccc4c(c3)CCN(Cc3ccc(F)c(Cl)c3)C4=O)c(Cl)c2)c(=O)[nH]c1=O` [Example 35d, 2-(3,5-dichloro-4-((2-(3-chloro-4-fluorobenzyl)-1-oxo-1,2,3,4-tetrahydroisoquinolin-6-yl)oxy)phenyl)-3,5-dioxo-2,3,4,5-tetrahydro-1,2,4-triazine-6-carbonitrile], the EC50 was 0.08 µM in test [1] and above 100 µM in test [2].

Turning to `COc1cccc(CN2CCc3cc(Oc4c(Cl)cc(-n5ncc(=O)[nH]c5=O)cc4Cl)ccc3C2=O)c1` [Example 36, 2-(3,5-dichloro-4-((2-(3-methoxybenzyl)-1-oxo-1,2,3,4-tetrahydroisoquinolin-6-yl)oxy)phenyl)-1,2,4-triazine-3,5(2H,4H)-dione], the values for the EC50 in test [1] and in test [2] were below 0.0046 µM and 0.079 µM, respectively.

As for `N#Cc1nn(-c2cc(Cl)c(Oc3ccc4c(c3)CCN(CC3CC3)C4=O)c(Cl)c2)c(=O)[nH]c1=O` [Example 38, 2-(3,5-dichloro-4-((2-(cyclopropylmethyl)-1-oxo-1,2,3,4-tetrahydroisoquinolin-6-yl)oxy)phenyl)-3,5-dioxo-2,3,4,5-tetrahydro-1,2,4-triazine-6-carbonitrile], the EC50 in test [1] was below 0.0046 µM; in test [2], below 0.046 µM.

As for `N#Cc1nn(-c2cc(Cl)c(Oc3ccc4c(c3)CCN(CO)C4=O)c(Cl)c2)c(=O)[nH]c1=O` [Example 39, 2-(3,5-dichloro-4-((2-(hydroxymethyl)-1-oxo-1,2,3,4-tetrahydroisoquinolin-6-yl)oxy)phenyl)-3,5-dioxo-2,3,4,5-tetrahydro-1,2,4-triazine-6-carbonitrile], the values for the half-maximal effective concentration (EC50) in test [1] and in test [2] were 0.472 µM and above 100 µM, respectively.

Regarding `Cc1ccc(F)cc1CN1CCc2cc(Oc3c(Cl)cc(-n4ncc(=O)[nH]c4=O)cc3Cl)ccc2C1=O` [Example 40, 2-(3,5-dichloro-4-((2-(5-fluoro-2-methylbenzyl)-1-oxo-1,2,3,4-tetrahydroisoquinolin-6-yl)oxy)phenyl)-1,2,4-triazine-3,5(2H,4H)-dione], the figures for the EC50 in test [1] and in test [2] were below 0.0046 µM and 0.179 µM, respectively.

Consider `Cc1ccc(F)cc1CN1CCc2cc(Oc3c(Cl)cc(-n4nc(C#N)c(=O)[nH]c4=O)cc3Cl)ccc2C1=O` [Example 40d, 2-(3,5-dichloro-4-((2-(5-fluoro-2-methylbenzyl)-1-oxo-1,2,3,4-tetrahydroisoquinolin-6-yl)oxy)phenyl)-3,5-dioxo-2,3,4,5-tetrahydro-1,2,4-triazine-6-carbonitrile], for which the half-maximal effective concentration (EC50) in test [1] was 0.035 µM; in test [2] it was above 100 µM.

For the compound `O=C1c2ccc(Oc3c(Cl)cc(-n4ncc(=O)[nH]c4=O)cc3Cl)cc2CCN1c1ccccn1` [Example 47], the half-maximal effective concentration (EC50) in test [1] was found to be 0.039 µM; in test [2] it was 0.161 µM.

Turning to `N#Cc1nn(-c2cc(Cl)c(Oc3ccc4c(c3)CCN(c3ccccn3)C4=O)c(Cl)c2)c(=O)[nH]c1=O` [Example 47f, 2-(3,5-dichloro-4-((1-oxo-2-(pyridin-2-yl)-1,2,3,4-tetrahydroisoquinolin-6-yl)oxy)phenyl)-3,5-dioxo-2,3,4,5-tetrahydro-1,2,4-triazine-6-carbonitrile], the concentration giving a half-maximal response (EC50) in test [1] is 0.214 µM; in test [2] it was above 100 µM.

`O=C1c2ccc(Oc3c(Cl)cc(-n4ncc(=O)[nH]c4=O)cc3Cl)cc2CCN1c1ccncc1` [Example 48, 2-(3,5-dichloro-4-((1-oxo-2-(pyridin-4-yl)-1,2,3,4-tetrahydroisoquinolin-6-yl)oxy)phenyl)-1,2,4-triazine-3,5(2H,4H)-dione]: the EC50 in test [1] is 0.065 µM; in test [2] it was 0.558 µM.

The values above are taken from patent US20240025875A1, “A COMPOUND AS A THYROID HORMONE BETA RECEPTOR AGONIST AND USE THEREOF” (SUNSHINE LAKE PHARMA CO., LTD., priority 2020, published 2024).
